Holding throughout (experiment): relative viability (nuclei count vs DMSO), 5 days (fraction); higher = more cells survive
Compound in assay [1]: CCn1c(-c2nonc2N)nc2cnc(Oc3cccc(NC(=O)c4ccc(OCCN5CCOCC5)cc4)c3)cc21 + Nc1ncn([C@H]2C[C@H](O)[C@@H](CO)O2)c(=O)n1 [Decitabine] (partner 2 µM)
In short, it runs like this:
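A single step with final 0.05% Triton X-100, 1% formaldehyde and 1 ug/ml Hoechst fixed the cells and stained nuclei 5 days after treatment. Lung cancer cell lines in 1536-well plates had been treated by pin tool the day after seeding with one drug alone or a fixed anchor-drug dose plus five library-drug doses (not always all listed) in √10 steps, and nuclei were counted on 4× images. Relative viability is the ratio of nuclei in treated wells to nuclei in vehicle wells, taken as the median of duplicate plates.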

Compound in assay [2]: CCC1=CN=CN=C1N2CCN(CC2)CC3=NC4=C(N3)C=C(C=C4)C(F)(F)F
In a few lines: (§1)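 After an overnight hold at 37 °C, lung cancer cell lines in 1536-well plates were pinned with five library-drug doses (not always all listed), each √10 from the next, on vehicle-anchored plates. The cells stayed 5 days without fresh medium, then a one-step fix, permeabilisation and Hoechst stain preceded 4× imaging and MetaXpress nuclear counts. A plate passed only with control CV under 25% and at least one doubling. Viability is the median, over plates, of treated-well nuclei relative to vehicle-well nuclei.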

Compound in assay [3]: CCn1c(-c2nonc2N)nc2cnc(Oc3cccc(NC(=O)c4ccc(OCCN5CCOCC5)cc4)c3)cc21
In a few lines: as §1

Compound in another assay: N=C1NC(=O)/C(=C/c2ccc(O)cc2)S1 [Mirin]
In short, it runs like this:
as §1

As to UMC-11, the relative viability in assay [1] (first compound 0.04 µM) amounted to 0.596; in assay [1] (first compound 0.1265 µM), 0.528; in assay [1] (first compound 0.4 µM) it was 0.423; in assay [1] (first compound 1.265 µM), 0.125; in assay [1] (first compound 4 µM) it was 0.269; in assay [2] (0.04 µM), 0.925. Besides, the relative viability in assay [2] (0.1265 µM) was 0.948; in assay [2] (0.4 µM) it was 0.933; in assay [2] (1.265 µM) it was 0.838; in assay [2] (4 µM), 0.888; in assay [3] (0.04 µM), 0.965; in assay [3] (0.1265 µM), 0.85. The relative viability in assay [3] (0.4 µM) was determined as 0.481; in assay [3] (1.265 µM), 0.275; in assay [3] (4 µM) it was 0.236; with Mirin (0.25 µM), 1.01; with Mirin (0.7906 µM) it was 0.657; with Mirin (2.5 µM), 1.02. Further, the relative viability in the assay with Mirin (7.906 µM) was found to be 0.803; with Mirin (25 µM), 0.608.

The values are drawn from the supplement of paper PMC10307832.
